# Laboratory results from US10028961B2, “Therapeutically active compounds and their methods of use” (AGIOS PHARMACEUTICALS, INC., priority 2013, dated 2018).
# pIC50: −log10 of the molar value. Like-named read-outs stand apart in the source and are kept apart here.
# Experiments:
# [1] = biological target: IDH1 wt/IDH1 R132H heterodimer (Homo sapiens (Human), UniProt O75874, R132H); assay: In vitro assay for IDH1m R132H inhibitors, IDH1 wt/IDH1 R132H heterodimer, NADPH depletion (diaphorase/resazurin); format: biochemical
# Sequence of IDH1 wt/IDH1 R132H heterodimer (O75874 whole entry R132H): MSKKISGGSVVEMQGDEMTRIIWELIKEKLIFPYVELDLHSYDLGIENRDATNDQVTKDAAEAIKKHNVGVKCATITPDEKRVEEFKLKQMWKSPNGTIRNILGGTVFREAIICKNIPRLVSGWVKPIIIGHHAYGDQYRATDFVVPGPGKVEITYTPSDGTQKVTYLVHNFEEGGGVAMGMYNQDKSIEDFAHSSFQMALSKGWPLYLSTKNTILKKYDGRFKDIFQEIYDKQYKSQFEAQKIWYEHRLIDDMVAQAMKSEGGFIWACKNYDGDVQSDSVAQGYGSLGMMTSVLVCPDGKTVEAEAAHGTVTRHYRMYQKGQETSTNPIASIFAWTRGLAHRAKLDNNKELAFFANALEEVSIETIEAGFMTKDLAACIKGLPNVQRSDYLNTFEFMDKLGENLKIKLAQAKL
# Sequence of IDH1 wt/IDH1 R132H heterodimer (O75874 whole entry, stated change not applied): as the sequence (O75874 whole entry R132H) above, with H132R counted along it
# How it was run: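 Purified IDH1wt-his/IDH1R132H-flag heterodimer (sf9 co-expression) pre-incubated 1 hr at room temperature with compound and NADPH before α-KG addition. Remaining NADPH read by diaphorase/resazurin conversion to fluorescent resorufin, 5 min at 25° C. Compounds diluted 1:50 from DMSO; IC50 determined.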
# IDH2 R140Q = IDH2 R140Q (Homo sapiens (Human), UniProt P48735, R140Q); assay: In vitro assay for IDH2m R140Q inhibitors, cofactor depletion assay; format: biochemical; conditions: IDH2 R140Q enzyme
# Sequence of IDH2 R140Q (P48735 40-452 R140Q): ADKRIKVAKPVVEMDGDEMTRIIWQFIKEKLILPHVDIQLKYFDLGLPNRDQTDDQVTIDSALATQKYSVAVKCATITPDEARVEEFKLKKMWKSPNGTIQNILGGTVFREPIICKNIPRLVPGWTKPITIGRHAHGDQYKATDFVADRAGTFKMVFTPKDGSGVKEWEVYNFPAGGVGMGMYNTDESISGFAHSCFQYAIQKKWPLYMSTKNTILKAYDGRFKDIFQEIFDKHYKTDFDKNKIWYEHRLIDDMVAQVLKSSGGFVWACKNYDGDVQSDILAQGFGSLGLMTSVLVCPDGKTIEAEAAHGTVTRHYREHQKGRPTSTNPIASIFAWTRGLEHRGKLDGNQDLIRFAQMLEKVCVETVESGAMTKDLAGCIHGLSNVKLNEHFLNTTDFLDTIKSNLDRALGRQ
# How it was run: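 Remaining cofactor measured fluorimetrically: diaphorase/resazurin Stop Mix […], halting the reaction. Before that, mutant enzyme and compound sat 1 h at RT, then substrate mix (4 μM NADPH, 1.6 mM α-KG) was added for 16 h at RT.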
# [2] = tested on: Neurosphere cells (TS603); assay: Cellular assay for IDH1m R132H inhibitors, 2-HG by LC-MS in neurosphere cells (TS603); format: cell-based; conditions: 2-HG in media at 48 hours
# How it was run: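 TS603 neurosphere cells in NeuroCult medium were dosed with compound (0.25% DMSO final) at 37 C, 5% CO2. After 48 hours, medium 2-HG was measured by LC-MS. At 72 hours, viability was read by CellTiter-Glo luminescence.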
# HT1080 cells = assay: Cellular assay for IDH1m R132C inhibitors, 2-HG by LC-MS in HT1080 cells; format: cell-based; conditions: Homo sapiens, HT-1080
# Procedure: The following describes the experimental procedures that can be used to obtain data on column 5 of Table 4.
# Cells (HT1080 or U87MG) are grown in T125 flasks in DMEM containing 10% FBS, 1× penicillin/streptomycin and 500 ug/mL G418 (present in U87MG cells only). They are harvested by trypsin and seeded into 96 well white bottom plates at a density of 5000 cell/well in 100 ul/well in DMEM with 10% FBS. No cells are placed in columns 1 and 12. Cells are incubated overnight at 37° C. in 5% CO2. The next day test compounds are made up at 2× the final concentration and 100 ul are added to each cell well. The final concentration of DMSO is 0.2% and the DMSO control wells are plated in row G. The plates are then placed in the incubator for 48 hours. At 48 hours, 100 ul of media is removed from each well and analyzed by LC-MS for 2-HG concentrations. The cell plate is placed back in the incubator for another 24 hours. At 72 hours post compound addition, 10 mL/plate of Promega Cell Titer Glo reagent is thawed and mixed. The cell plate is removed from the incubator and allowed to equilibrate to room temperature. Then 100 ul of Promega Cell Titer Glo reagent is added to each well of media. The cell plate is then placed on an orbital shaker for 10 minutes and then allowed to sit at room temperature for 20 minutes. The plate is then read for luminescence with an integration time of 500 ms.
# HT1080 cells are maintained in RPMI containing 10% FBS, 1× penicillin/streptomycin. […] The next day compounds are prepared in 100% DMSO and then diluted in media for a final concentration of 0.2% DMSO. Media is removed from the cell plates and 200 μL of the compound dilutions are added to each well. […] The cell plates are then allowed to incubate another 24 hours.
# [3] = tested on: U87MG pLVX-IDH2 R140Q-neo cells; assay: U87MG pLVX-IDH2 R140Q-neo cell based assay, 2-HG by LC-MS; conditions: Homo sapiens, U-87 MG
# [4] = biological target: IDH1-R132H homodimer enzyme (Homo sapiens (Human), UniProt O75874, R132H); assay: In vitro assay IDH1-R132H homodimer, NADPH depletion assay with NADPH/NADP preincubation; format: biochemical; conditions: 5 μM NADPH and 37.5 μM NADP
# Sequence of IDH1-R132H homodimer enzyme (O75874 whole entry R132H): as the sequence (O75874 whole entry R132H) above
# Procedure: The following describes the experimental procedures that can be used to obtain data on columns 3 and 5 of Table 5.
# A test compound is prepared as 10 mM stock in DMSO and diluted to 50× final concentration in DMSO, for a 50 μl reaction mixture. IDH enzyme activity converting alpha-ketoglutarate to 2-hydroxyglutaric acid is measured using a NADPH depletion assay. In the assay the remaining cofactor is measured at the end of the reaction with the addition of a catalytic excess of diaphorase and resazurin, to generate a fluorescent signal in proportion to the amount of NADPH remaining. […] The reaction is started with the addition of 10 μl of Substrate Mix ([…], 5 mM alpha-ketoglutarate, in Assay Buffer) and the mixture is incubated for 60 minutes at room temperature.
# [5] = IDH1 wt/IDH1 R132H heterodimer, 300 μM NADP (saturated), read-out: IDH1 wt/R132H NADPH/NADP IC50 saturated
# [6] = IDH1 wt/R132H heterodimer, NADPH/NADP, not saturated, read-out: IDH1 wt/R132H NADPH/NADP IC50 not saturated
"pIC50 [1, 5]",pIC50 (IDH2 R140Q),pIC50 [2],pIC50 (HT1080 cells),pIC50 [3],"pIC50 [1, 6]",pIC50 [4],Compound
> 7.30,> 7.30,> 7.30,> 7.30,> 7.30,–,–,FC(F)c1cncc(-c2nc(NC3CCC(F)(F)C3)nc(NC3CCC(F)(F)C3)n2)n1 (stereo not drawn) [Compound 408]
> 7.30,> 7.30,> 7.30,> 7.30,> 7.30,–,–,FC(F)c1csc(-c2nc(NC3CC(F)(F)C3)nc(NC3CC(F)(F)C3)n2)n1 [Compound 403]
> 7.30,> 7.30,> 7.30,6.00 to 7.00,> 7.30,–,–,N#CC1(c2cc(Nc3nc(NC4CCC(F)(F)CC4)nc(-c4cncc(C(F)(F)F)n4)n3)ccn2)CC1 [Compound 394]
> 7.30,> 7.30,> 7.30,> 7.30,> 7.30,–,–,FC(F)c1cncc(-c2nc(NC3CC(F)(F)C3)nc(NC3CC(F)(F)C3)n2)n1 [Compound 409]
7.00 to 7.30,> 7.30,> 7.30,> 7.30,> 7.30,–,–,FC(F)c1csc(-c2nc(NC3CCC(F)(F)C3)nc(NC3CCC(F)(F)C3)n2)n1 (stereo not drawn) [Compound 402]
> 7.30,–,–,6.00 to 7.00,> 7.30,–,> 7.30,Fc1cc(F)cc(Nc2nc(NC3CC(F)(F)C3)nc(-c3nc(C(F)(F)F)cs3)n2)c1 [Compound 413]
6.00 to 7.00,7.00 to 7.30,> 7.30,6.00 to 7.00,7.00 to 7.30,–,–,FC(F)c1ccnc(-c2nc(NC3CC(F)(F)C3)nc(NC3CC(F)(F)C3)n2)n1 [Compound 411]
6.00 to 7.00,> 7.30,> 7.30,6.00 to 7.00,> 7.30,–,–,FC(F)(F)c1cc(Nc2nc(NCC3CC3)nc(-n3ccc(C(F)(F)F)n3)n2)ccn1 [Compound 407]
> 7.30,> 7.30,> 7.30,7.00 to 7.30,> 7.30,–,–,FC1(F)CC(Nc2nc(Nc3ccnc(C(F)(F)F)c3)nc(-c3nc(C(F)(F)F)cs3)n2)C1 [Compound 388]
7.00 to 7.30,> 7.30,> 7.30,7.00 to 7.30,> 7.30,–,–,FC1(F)CCC(Nc2nc(Nc3cncc(C(F)(F)F)c3)nc(-c3cccc(C(F)(F)F)n3)n2)C1 (stereo not drawn) [Compound 405]
7.00 to 7.30,> 7.30,> 7.30,6.00 to 7.00,> 7.30,–,–,FC1(F)CC(Nc2nc(Nc3ccnc(C(F)(F)F)c3)nc(-c3cncc(C(F)(F)F)n3)n2)C1 [Compound 390]
6.00 to 7.00,–,> 7.30,6.00 to 7.00,7.00 to 7.30,–,–,FC(F)c1ccnc(-c2nc(NC3CCC(F)(F)C3)nc(NC3CCC(F)(F)C3)n2)n1 (stereo not drawn) [Compound 412]
> 7.30,> 7.30,> 7.30,> 7.30,> 7.30,–,–,CC(Nc1nc(NC(C)C(F)(F)F)nc(-c2nc(C(F)(F)F)cs2)n1)C(F)(F)F (stereo not drawn) [Compound 404]

# More lines, now with the values behind:
Compound,"pIC50 [1, 5]",pIC50 (IDH2 R140Q),pIC50 [2],pIC50 (HT1080 cells),pIC50 [3],"pIC50 [1, 6]",pIC50 [4]
C[C@@H](Nc1nc(N[C@H](C)C(F)(F)F)nc(-c2cncc(C(F)(F)F)n2)n1)C(F)(F)F [Compound 386],> 7.30,> 7.30,> 7.30,> 7.30,> 7.30,–,–
N#CC1(c2cc(Nc3nc(NC4CC5(C4)CC(F)(F)C5)nc(-c4cncc(C(F)(F)F)n4)n3)ccn2)CC1 [Compound 385],7.00 to 7.30,> 7.30,> 7.30,6.00 to 7.00,> 7.30,–,–
C[C@@H](Nc1nc(Nc2ccnc(C3(C#N)CC3)c2)nc(-c2cncc(C(F)(F)F)n2)n1)C(F)(F)F [Compound 377],> 7.30,> 7.30,> 7.30,6.00 to 7.00,> 7.30,–,–
C[C@H](Nc1nc(N[C@H](C)C(F)(F)F)nc(-c2cccc(Cl)n2)n1)C(F)(F)F [Compound 136],–,–,> 7.30,> 7.30,> 7.30,–,–
CC(C)(O)CNc1nc(NC2CCC(F)(F)CC2)nc(-c2cccc(C(F)(F)F)n2)n1 [Compound 287],–,6.00 to 7.00,–,< 6.00,6.00 to 7.00,6.00 to 7.00,< 6.00
FC1(F)CCC(Nc2nc(NC3CCC(F)(F)C3)nc(-c3cccc(C4CC4)n3)n2)C1 (stereo not drawn) [Compound 258],–,–,–,< 6.00,> 7.30,6.00 to 7.00,–
CC(F)(F)c1cccc(-c2nc(NC3CCC(F)(F)CC3)nc(NC3CCC(F)(F)CC3)n2)n1 [Compound 218],–,> 7.30,> 7.30,6.00 to 7.00,> 7.30,> 7.30,–
CC[C@@H](Nc1nc(N[C@H](CC)C(F)(F)F)nc(-c2cccc(Cl)n2)n1)C(F)(F)F [Compound 104],–,> 7.30,–,> 7.30,> 7.30,> 7.30,> 7.30
Nc1ccc(F)c(-c2nc(Nc3cc(F)cc(F)c3)nc(NC3CCC(F)(F)C3)n2)n1 (stereo not drawn) [Compound 153],–,> 7.30,–,7.00 to 7.30,> 7.30,> 7.30,> 7.30
C[C@@H](Nc1nc(N[C@H](C)C(F)(F)F)nc(-c2cccc(Cl)n2)n1)C(F)(F)F [Compound 101],–,–,> 7.30,> 7.30,> 7.30,–,–
CC(C)(O)CNc1nc(Nc2cc(F)cc(F)c2)nc(-n2ccc(C(F)(F)F)n2)n1 [Compound 235],–,> 7.30,> 7.30,6.00 to 7.00,> 7.30,> 7.30,–
COc1ccc2c(c1)CC(Nc1nc(NC3CCC(F)(F)C3)nc(-c3cccc(C(F)(F)F)n3)n1)C2 (stereo not drawn) [Compound 166],–,–,> 7.30,6.00 to 7.00,–,> 7.30,–
FC1(F)CCC(Nc2nc(NC3Cc4cccnc4C3)nc(-c3cccc(C(F)(F)F)n3)n2)C1 (stereo not drawn) [Compound 188],–,–,> 7.30,> 7.30,–,> 7.30,–
C[C@H](Nc1nc(N[C@@H](C)C(F)(F)F)nc(-c2cccc(Cl)n2)n1)C(F)(F)F [Compound 142],–,–,> 7.30,> 7.30,> 7.30,–,–
N#Cc1cc(Nc2nc(N[C@H]3CCC(F)(F)C3)nc(-n3ccc(C(F)(F)F)n3)n2)ccn1 [Compound 381],> 7.30,> 7.30,> 7.30,6.00 to 7.00,> 7.30,–,–
CC(F)(F)c1cccc(-c2nc(Nc3ccnc(C4(C#N)CC4)c3)nc(NC3CCC(F)(F)C3)n2)n1 (stereo not drawn) [Compound 384],> 7.30,> 7.30,> 7.30,6.00 to 7.00,> 7.30,–,–
N#CC1(c2cc(Nc3nc(N[C@@H]4CCC(F)(F)C4)nc(-c4cncc(C(F)(F)F)n4)n3)ccn2)CC1 [Compound 378],> 7.30,> 7.30,> 7.30,7.00 to 7.30,> 7.30,–,–
C[C@@H](Nc1nc(N[C@H](C)C(F)(F)F)nc(-c2csc(C(F)(F)F)n2)n1)C(F)(F)F [Compound 114],–,> 7.30,> 7.30,> 7.30,> 7.30,> 7.30,–
